Assays:
Format in all cases: in vitro ADME
Conditions in all cases: colchicine 25 µM, NADPH 1 mM, CYP 2 pmol/mL, PBS pH 7.4; mean ± SD (n = 2)
CYP3A5 = biological target: T1, CYP3A5 (Homo sapiens, UniProt P20815); assay: Colchicine metabolism by cDNA-expressed recombinant CYP3A5
T1 construct: purchased Research Institute for Liver Diseases Co., Ltd. (Shanghai, China)
Experimental: (§1) Pre-cooled acetonitrile was used to terminate the reaction, and then centrifugation (4 °C, 12,000 rpm, 20 min) was performed to obtain the sample.
(§2) All samples were analyzed as shown in [17] and are briefly described in Supporting Information. […]
(§3) Supplementary materials and methods
(§4) Reference numbers refer to the main text list
(§5) UHPLC‐Q exactive plus MS Analysis
(§6) All samples were analyzed on a liquid chromatography system including a Vanquish autosampler, Vanquish detector, Vanquish pump (Thremo Fisher Scientific, Santa Clara, CA). Samples were separated on an ACQUITY UPLC HSS T3 column (2.1×100 mm, […], Waters, USA). The injection volume: 5 μL, and the flow rate was 0.3 mL/min.
(§7) Phase A was H2O containing 0.01% formic acid, and phase B was acetonitrile containing 0.01% formic acid. The elution gradient was as follows: 0‐12 mi n, 2‐98% B; 12‐14 min, 2% A; 14‐16 min, 98% A. Other parameters are as follows: column temperature 45 ℃ , flow rate of collision gas and dry gas 9 L/min. Capillary voltage 3.5 kV, temperature 350 ℃ , atomizer pressure 35 psi. Vanquish UHPLC‐Q Exactive plus MS (Thermo Fisher, USA) was collected in both positive modes, operating in full scan mode with 60‐900 m/z. […]

CYP2C19 = biological target: T2, CYP2C19 (Homo sapiens, UniProt P33261); assay: Colchicine metabolism by cDNA-expressed recombinant CYP2C19
T2 construct: purchased Research Institute for Liver Diseases Co., Ltd. (Shanghai, China)
Experimental: as §1, §2, §3, §4, §5, §6, §7

CYP2B6 = biological target: T3, CYP2B6 (Homo sapiens, UniProt P20813); assay: Colchicine metabolism by cDNA-expressed recombinant CYP2B6
T3 construct: purchased Research Institute for Liver Diseases Co., Ltd. (Shanghai, China)
T3 sequence (P20813 1-491): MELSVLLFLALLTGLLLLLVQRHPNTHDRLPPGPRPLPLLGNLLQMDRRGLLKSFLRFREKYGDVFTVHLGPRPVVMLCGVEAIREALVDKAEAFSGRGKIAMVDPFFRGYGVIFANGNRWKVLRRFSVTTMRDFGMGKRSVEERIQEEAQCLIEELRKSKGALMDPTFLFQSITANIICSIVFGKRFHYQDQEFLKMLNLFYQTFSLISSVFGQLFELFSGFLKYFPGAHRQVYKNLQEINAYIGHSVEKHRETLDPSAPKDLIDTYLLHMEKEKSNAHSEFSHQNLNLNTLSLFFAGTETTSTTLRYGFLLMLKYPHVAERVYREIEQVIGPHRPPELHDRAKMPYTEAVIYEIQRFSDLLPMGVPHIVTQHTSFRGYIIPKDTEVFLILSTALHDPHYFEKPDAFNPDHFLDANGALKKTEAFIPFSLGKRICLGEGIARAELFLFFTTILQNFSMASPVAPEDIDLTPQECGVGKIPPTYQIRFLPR
Experimental: as §1, §2, §3, §4, §5, §6, §7

CYP3A4 = biological target: T4, CYP3A4 (Homo sapiens, UniProt P08684); assay: Colchicine metabolism by cDNA-expressed recombinant CYP3A4
T4 construct: purchased Research Institute for Liver Diseases Co., Ltd. (Shanghai, China)
Experimental: as §1, §2, §3, §4, §5, §6, §7

CYP1A1 = biological target: T5, CYP1A1 (Homo sapiens, UniProt P04798); assay: Colchicine metabolism by cDNA-expressed recombinant CYP1A1
T5 construct: purchased Research Institute for Liver Diseases Co., Ltd. (Shanghai, China)
T5 sequence (P04798 1-512): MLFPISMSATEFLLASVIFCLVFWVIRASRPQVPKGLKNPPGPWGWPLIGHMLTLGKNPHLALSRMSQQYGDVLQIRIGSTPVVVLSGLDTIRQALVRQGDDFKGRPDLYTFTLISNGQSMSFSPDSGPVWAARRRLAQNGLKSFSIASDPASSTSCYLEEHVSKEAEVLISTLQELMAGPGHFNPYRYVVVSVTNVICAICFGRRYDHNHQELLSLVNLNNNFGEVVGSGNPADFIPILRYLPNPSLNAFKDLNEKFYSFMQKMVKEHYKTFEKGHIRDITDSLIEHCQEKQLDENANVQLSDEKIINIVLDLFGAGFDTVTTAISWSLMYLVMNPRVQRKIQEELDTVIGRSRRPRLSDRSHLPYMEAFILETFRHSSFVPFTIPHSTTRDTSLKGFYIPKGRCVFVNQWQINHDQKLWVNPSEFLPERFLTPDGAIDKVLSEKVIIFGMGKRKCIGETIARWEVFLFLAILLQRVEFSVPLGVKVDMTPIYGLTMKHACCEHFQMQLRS
Experimental: as §1, §2, §3, §4, §5, §6, §7

CYP2C8 = biological target: T6, CYP2C8 (Homo sapiens, UniProt P10632); assay: Colchicine metabolism by cDNA-expressed recombinant CYP2C8
T6 construct: purchased Research Institute for Liver Diseases Co., Ltd. (Shanghai, China)
T6 sequence (P10632 1-490): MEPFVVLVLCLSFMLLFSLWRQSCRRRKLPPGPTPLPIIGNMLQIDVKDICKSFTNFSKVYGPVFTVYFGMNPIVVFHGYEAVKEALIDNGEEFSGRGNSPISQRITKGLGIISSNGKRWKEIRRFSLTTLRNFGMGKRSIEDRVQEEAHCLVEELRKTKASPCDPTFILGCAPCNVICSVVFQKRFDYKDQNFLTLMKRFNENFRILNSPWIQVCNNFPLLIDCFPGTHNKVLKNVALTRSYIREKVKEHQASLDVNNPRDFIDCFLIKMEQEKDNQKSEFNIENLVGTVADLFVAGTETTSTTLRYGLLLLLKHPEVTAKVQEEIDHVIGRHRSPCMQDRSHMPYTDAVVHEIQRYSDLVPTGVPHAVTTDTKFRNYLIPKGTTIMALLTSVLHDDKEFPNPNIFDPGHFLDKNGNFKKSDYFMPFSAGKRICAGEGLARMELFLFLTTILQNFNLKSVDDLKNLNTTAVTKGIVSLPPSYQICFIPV
Experimental: as §1, §2, §3, §4, §5, §6, §7

CYP2E1 = biological target: T7, CYP2E1 (Homo sapiens, UniProt P05181); assay: Colchicine metabolism by cDNA-expressed recombinant CYP2E1
T7 construct: purchased Research Institute for Liver Diseases Co., Ltd. (Shanghai, China)
Experimental: as §1, §2, §3, §4, §5, §6, §7

CYP2C9 = biological target: T8, CYP2C9 (Homo sapiens, UniProt P11712); assay: Colchicine metabolism by cDNA-expressed recombinant CYP2C9
T8 construct: purchased Research Institute for Liver Diseases Co., Ltd. (Shanghai, China)
Experimental: as §1, §2, §3, §4, §5, §6, §7

CYP2A6 = biological target: T9, CYP2A6 (Homo sapiens, UniProt P11509); assay: Colchicine metabolism by cDNA-expressed recombinant CYP2A6
T9 construct: purchased Research Institute for Liver Diseases Co., Ltd. (Shanghai, China)
Experimental: as §1, §2, §3, §4, §5, §6, §7

T7 sequence (P05181 whole entry): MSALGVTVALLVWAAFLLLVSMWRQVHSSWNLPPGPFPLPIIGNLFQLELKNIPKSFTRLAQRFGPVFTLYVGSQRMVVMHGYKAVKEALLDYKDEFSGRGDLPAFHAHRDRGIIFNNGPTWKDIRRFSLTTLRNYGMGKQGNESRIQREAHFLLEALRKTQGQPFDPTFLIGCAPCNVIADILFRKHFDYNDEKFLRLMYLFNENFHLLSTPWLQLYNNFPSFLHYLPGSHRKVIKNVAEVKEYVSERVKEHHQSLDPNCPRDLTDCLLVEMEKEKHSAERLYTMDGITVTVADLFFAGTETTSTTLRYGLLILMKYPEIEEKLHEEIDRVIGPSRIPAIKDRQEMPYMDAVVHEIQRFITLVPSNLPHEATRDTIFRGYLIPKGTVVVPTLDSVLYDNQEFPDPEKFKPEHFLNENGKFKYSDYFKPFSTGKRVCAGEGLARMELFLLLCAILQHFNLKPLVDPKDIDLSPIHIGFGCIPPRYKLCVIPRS
T1 sequence (P20815 whole entry): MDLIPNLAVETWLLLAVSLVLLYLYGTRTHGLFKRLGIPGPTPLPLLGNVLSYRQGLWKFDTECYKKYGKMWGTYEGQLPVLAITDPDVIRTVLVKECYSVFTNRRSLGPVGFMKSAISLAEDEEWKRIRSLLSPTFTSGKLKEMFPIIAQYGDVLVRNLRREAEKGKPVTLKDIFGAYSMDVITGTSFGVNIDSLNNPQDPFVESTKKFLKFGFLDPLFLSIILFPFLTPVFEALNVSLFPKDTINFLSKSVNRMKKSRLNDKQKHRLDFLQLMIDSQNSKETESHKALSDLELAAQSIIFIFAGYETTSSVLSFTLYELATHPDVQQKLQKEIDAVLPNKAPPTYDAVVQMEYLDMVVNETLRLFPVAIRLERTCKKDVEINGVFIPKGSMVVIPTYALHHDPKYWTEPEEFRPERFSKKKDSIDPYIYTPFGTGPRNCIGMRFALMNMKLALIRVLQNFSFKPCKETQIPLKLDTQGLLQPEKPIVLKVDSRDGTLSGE
T2 sequence (P33261 whole entry): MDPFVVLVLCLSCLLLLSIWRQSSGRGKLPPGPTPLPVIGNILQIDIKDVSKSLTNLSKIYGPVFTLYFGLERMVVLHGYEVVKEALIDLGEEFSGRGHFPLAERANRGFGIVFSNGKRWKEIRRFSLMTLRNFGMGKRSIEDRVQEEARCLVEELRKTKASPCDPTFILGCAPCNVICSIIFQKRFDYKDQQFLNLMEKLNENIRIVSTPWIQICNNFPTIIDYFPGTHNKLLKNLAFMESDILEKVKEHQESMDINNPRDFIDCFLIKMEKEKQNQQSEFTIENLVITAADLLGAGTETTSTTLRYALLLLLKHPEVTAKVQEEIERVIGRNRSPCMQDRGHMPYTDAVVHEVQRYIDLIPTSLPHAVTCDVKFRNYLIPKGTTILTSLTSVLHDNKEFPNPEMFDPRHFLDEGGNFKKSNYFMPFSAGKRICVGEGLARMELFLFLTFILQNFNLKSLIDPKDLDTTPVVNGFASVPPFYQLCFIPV
T4 sequence (P08684 whole entry): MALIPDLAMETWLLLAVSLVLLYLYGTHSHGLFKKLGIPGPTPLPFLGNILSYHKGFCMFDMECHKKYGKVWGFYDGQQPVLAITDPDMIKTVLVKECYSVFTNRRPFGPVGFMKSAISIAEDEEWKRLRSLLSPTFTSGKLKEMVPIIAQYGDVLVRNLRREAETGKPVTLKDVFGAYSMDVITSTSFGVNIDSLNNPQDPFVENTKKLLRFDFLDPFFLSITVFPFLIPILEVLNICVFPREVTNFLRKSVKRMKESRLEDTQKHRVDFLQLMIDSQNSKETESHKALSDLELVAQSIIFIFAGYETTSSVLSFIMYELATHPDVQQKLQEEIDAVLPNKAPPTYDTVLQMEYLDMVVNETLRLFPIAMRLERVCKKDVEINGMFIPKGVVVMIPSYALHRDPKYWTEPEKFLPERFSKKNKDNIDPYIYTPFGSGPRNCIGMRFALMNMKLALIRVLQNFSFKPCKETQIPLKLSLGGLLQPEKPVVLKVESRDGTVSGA
T8 sequence (P11712 whole entry): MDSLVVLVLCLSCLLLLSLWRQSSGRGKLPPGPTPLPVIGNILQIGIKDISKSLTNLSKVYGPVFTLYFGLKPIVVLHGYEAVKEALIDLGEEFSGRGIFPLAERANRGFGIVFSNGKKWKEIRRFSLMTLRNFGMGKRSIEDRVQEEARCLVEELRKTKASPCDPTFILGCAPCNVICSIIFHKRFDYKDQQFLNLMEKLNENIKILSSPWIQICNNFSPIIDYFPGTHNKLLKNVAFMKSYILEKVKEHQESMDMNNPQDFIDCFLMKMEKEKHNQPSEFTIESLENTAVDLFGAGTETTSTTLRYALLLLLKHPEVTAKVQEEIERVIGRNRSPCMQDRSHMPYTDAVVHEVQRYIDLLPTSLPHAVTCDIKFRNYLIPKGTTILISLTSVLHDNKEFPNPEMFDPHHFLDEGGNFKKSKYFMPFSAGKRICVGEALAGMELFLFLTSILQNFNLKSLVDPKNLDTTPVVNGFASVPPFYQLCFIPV
T9 sequence (P11509 whole entry): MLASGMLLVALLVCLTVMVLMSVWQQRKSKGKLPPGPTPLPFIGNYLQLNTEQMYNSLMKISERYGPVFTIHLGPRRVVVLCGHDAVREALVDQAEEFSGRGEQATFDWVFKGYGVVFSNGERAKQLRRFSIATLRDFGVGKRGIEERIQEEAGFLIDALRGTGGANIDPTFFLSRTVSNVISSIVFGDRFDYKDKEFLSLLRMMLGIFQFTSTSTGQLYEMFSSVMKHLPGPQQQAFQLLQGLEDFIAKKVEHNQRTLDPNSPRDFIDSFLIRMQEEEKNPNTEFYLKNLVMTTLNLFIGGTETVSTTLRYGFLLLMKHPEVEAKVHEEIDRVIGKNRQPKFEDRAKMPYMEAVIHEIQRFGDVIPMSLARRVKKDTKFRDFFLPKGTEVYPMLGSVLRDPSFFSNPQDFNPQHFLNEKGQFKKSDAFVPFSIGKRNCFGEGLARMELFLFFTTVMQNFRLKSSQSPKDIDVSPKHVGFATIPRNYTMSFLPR

Compound	peak area of the metabolite after incubation with CYP3A5 as a percentage of the total peak areas from all the CYPs (CYP3A5) [%]	peak area of the metabolite after incubation with CYP2C19 as a percentage of the total peak areas from all the CYPs (CYP2C19) [%]	peak area of the metabolite after incubation with CYP2B6 as a percentage of the total peak areas from all the CYPs (CYP2B6) [%]	peak area of the metabolite after incubation with CYP3A4 as a percentage of the total peak areas from all the CYPs (CYP3A4) [%]	peak area of the metabolite after incubation with CYP1A1 as a percentage of the total peak areas from all the CYPs (CYP1A1) [%]	peak area of the metabolite after incubation with CYP2C8 as a percentage of the total peak areas from all the CYPs (CYP2C8) [%]	peak area of the metabolite after incubation with CYP2E1 as a percentage of the total peak areas from all the CYPs (CYP2E1) [%]	peak area of the metabolite after incubation with CYP2C9 as a percentage of the total peak areas from all the CYPs (CYP2C9) [%]	peak area of the metabolite after incubation with CYP2A6 as a percentage of the total peak areas from all the CYPs (CYP2A6) [%]
COc1cc2c(c(OC)c1O)-c1ccc(OC)c(=O)cc1[C@@H](NC(C)=O)CC2 [M1]	9.93 ± 0.49	8.35 ± 0.65	6.90 ± 0.52	14.93 ± 1.41	3.91 ± 3.16	6.82 ± 0.03	4.77 ± 2.02	13.68 ± 5.29	5.39 ± 0.90
COc1cc2c(c(O)c1OC)-c1ccc(OC)c(=O)cc1[C@@H](NC(C)=O)CC2 [M2]	12.14 ± 0.15	6.27 ± 0.30	4.42 ± 0.21	47.73 ± 5.45	4.51 ± 2.24	3.69 ± 0.02	3.69 ± 0.51	5.57 ± 1.45	2.64 ± 0.16
COc1cc2c(c(OC)c1OC)-c1ccc(O)c(=O)cc1[C@@H](NC(C)=O)CC2 [M4]	7.36 ± 0.44	6.69 ± 1.91	7.77 ± 0.57	12.18 ± 0.70	6.99 ± 0.30	7.21 ± 0.40	6.93 ± 0.40	6.44 ± 0.02	6.66 ± 2.12
COc1c(O)cc2c(c1OC)-c1ccc(OC)c(=O)cc1[C@@H](NC(C)=O)C=C2 [M5]	8.12 ± 0.00	8.63 ± 1.05	7.86 ± 0.00	7.72 ± 15.62	6.87 ± 0.00	7.37 ± 0.00	7.32 ± 0.00	7.59 ± 0.00	7.26 ± 8.64
COc1cc2c(c(OC)c1OC)-c1ccc(OC)c(=O)cc1C=CC2 [M6]	8.06 ± 0.09	6.74 ± 0.36	9.86 ± 0.58	6.55 ± 0.65	8.78 ± 1.10	6.90 ± 1.01	8.09 ± 0.37	7.33 ± 0.35	8.25 ± 0.69
COc1c(O)cc2c(c1O)-c1ccc(OC)c(=O)cc1[C@@H](NC(C)=O)CC2 [M8]	11.08 ± 1.09	7.66 ± 2.52	10.13 ± 3.38	12.27 ± 1.54	9.32 ± 5.12	8.61 ± 4.55	6.78 ± 0.72	6.12 ± 3.22	4.23 ± 0.62
